Ends that are not written are not given here.

What all share (assay): In vitro HLA binding assay with purified HLA-DR molecules
In test [1] the target is HLA-DR DRB1*04:05 (Homo sapiens, UniProt P01903+P01911, A100R/A169T/D86S/F76Y/I96L/K127E/L162R/M171V/N62H/P40V/Q125Y/R42H/S133A/S149N/S66Y/V115G/V209L/W38E). To be noted: purified HLA-DR molecule; high affinity binding = IC50 <1,000 nM. As to the method: (§1) In vitro binding assays with 14 of the peptides that elicited a response were performed using purified HLA-DR molecules, as previously described (Table 3) ([37]). MHC class II in silico binding predictions were defined, using the IEDB analysis resource ([38]–[40]), combining predictions from the ANN ([41], [42]) and SMM ([43]) algorithms (Supplementary Table 2A).
(§2) To test this hypothesis, we measured the in vitro capacity of the most frequently recognized EXP1 peptides to bind to a panel of 17 of the most prevalent human HLA-DR molecules, since the majority of HLA class II restricted CD4+ T cell responses are presented by these molecules ([49], [50]). Peptides with an IC50 of 1,000 nM or lower, a threshold previously found associated with the vast majority of HLA class II-restricted T cell epitopes, were considered binders to the respective DR molecule ([51]–[53]). […] These include EXP1-P14 which bound to five, EXP1-P15 to 13, EXP1-P16 to 10 and EXP1-P17 to nine different HLA molecules (Table 3).

Test [2] addresses HLA-DR DRB1*04:01 (Homo sapiens, UniProt P01903+P01911, A100K/A169T/F76Y/I96L/K127E/L162R/M171V/N62H/P40V/Q125Y/R42H/S133A/S149N/S66Y/V115G/V209L/W38E). To be noted: purified HLA-DR molecule; high affinity binding = IC50 <1,000 nM. As to the method: as §1, §2
For test [3], the target named is HLA-DR DRB1*13:01 (Homo sapiens, UniProt P01903+P01911, A100E/A169T/K41T/L162R/M171V/P40S/Q125H/Q178H/Q39Y/Q99D/R42S/S66N/T262R/W38E/Y61H). To be noted: purified HLA-DR molecule; high affinity binding = IC50 <1,000 nM. As to the method:
as §1, §2

Test [4] deals with HLA-DR DRB1*11:01 (Homo sapiens, UniProt P01903+P01911, A100R/A169T/A87E/I96F/K41T/L162R/M171V/P40S/Q125H/Q178H/Q39Y/Q99D/R42S/S66Y/T262R/V115G/W38E). To be noted: purified HLA-DR molecule; high affinity binding = IC50 <1,000 nM. As to the method:
as §1, §2

Test [5] addresses HLA-DR DRB5*01:01 (Homo sapiens, UniProt P01903+Q30154). To be noted: purified HLA-DR molecule; high affinity binding = IC50 <1,000 nM. As to the method: as §1, §2
Test [6] has as its target HLA-DR DRB1*15:01 (Homo sapiens, UniProt P01903+P01911). To be noted: purified HLA-DR molecule; high affinity binding = IC50 <1,000 nM. As to the method: as §1, §2
Test [7] has as its target HLA-DR DRB1*13:02 (Homo sapiens, UniProt P01903+P01911, A100E/A169T/K41T/L162R/M171V/P40S/Q125H/Q178H/Q39Y/Q99D/R42S/S66N/T262R/V115G/W38E/Y61H). To be noted: purified HLA-DR molecule; high affinity binding = IC50 <1,000 nM. As to the method: as §1, §2
Test [8] concerns the target HLA-DR DRB1*07:01 (Homo sapiens, UniProt P01903+P01911, A100R/A102G/A103Q/D57E/D86V/E43K/F76Y/K127E/L162R/M171V/P40G/Q125H/Q99D/R33Q/R42Y/R54Q/S133A/S66F/T210M/V115G/Y107V/Y59L/Y89S). To be noted: purified HLA-DR molecule; high affinity binding = IC50 <1,000 nM. As to the method: as §1, §2
Test [9] addresses HLA-DR DRB1*08:02 (Homo sapiens, UniProt P01903+P01911, A100R/A103L/A169T/F76Y/H45Y/I96F/K41T/L162R/M171V/P40S/Q125H/Q178H/Q39Y/Q99D/R218S/R42G/S66Y/V115G/W38E). To be noted: purified HLA-DR molecule; high affinity binding = IC50 <1,000 nM. As to the method: as §1, §2
The target of test [10] is HLA-DR DRB3*01:01 (Homo sapiens, UniProt P01903+P79483). To be noted: purified HLA-DR molecule; high affinity binding = IC50 <1,000 nM. As to the method: as §1, §2
For test [11], the target named is HLA-DR DRB1*01:01 (Homo sapiens, UniProt P01903+P01911, A100R/D57E/F55L/F60I/F76Y/I96L/L162R/M171V/P40L/Q125E/R42F/V115G/Y59C). To be noted: purified HLA-DR molecule; high affinity binding = IC50 <1,000 nM. As to the method: as §1, §2
Test [12] deals with HLA-DR DRB4*01:01 (Homo sapiens, UniProt P01903+P13762, G164S). To be noted: purified HLA-DR molecule; high affinity binding = IC50 <1,000 nM. As to the method: as §1, §2
Test [13] has as its target HLA-DR DRB1*04:04 (Homo sapiens, UniProt P01903+P01911, A100R/A169T/F76Y/I96L/K127E/L162R/M171V/N62H/P40V/Q125Y/R42H/S133A/S149N/S66Y/V209L/W38E). To be noted: purified HLA-DR molecule; high affinity binding = IC50 <1,000 nM. As to the method:
as §1, §2

In test [14] the target is HLA-DR DRB1*10:01 (Homo sapiens, UniProt P01903+P01911, A100R/A169T/D57E/F55L/F60V/F69Y/F76Y/I96L/L162R/M171V/P40V/Q260P/Q39E/Q99R/R195Q/R42F/S149N/S66Y/T210M/V115G/V67A/W38E/Y59R/Y61H). To be noted: purified HLA-DR molecule; high affinity binding = IC50 <1,000 nM. As to the method:
as §1, §2

The target of test [15] is HLA-DR DRB1*09:01 (Homo sapiens, UniProt P01903+P01911, A100R/A103E/D57H/D86V/F55Y/F60I/F76Y/I96F/K127E/L162R/M171V/P40D/Q125H/Q99R/R33Q/R42F/S133A/S66N/T210M/V115G/W38K/Y107V/Y59G/Y89S).
The target of test [16] is HLA-DR DRB1*03:01 (Homo sapiens, UniProt P01903+P01911, A100K/A102G/A103R/A169T/F55Y/I96L/K41T/L162R/M171V/P40S/Q125H/Q178H/Q39Y/R42S/S66N/T106N/T262R/W38E/Y61H). To be noted: purified HLA-DR molecule; high affinity binding = IC50 <1,000 nM. As to the method:
as §1, §2

Test [17] concerns the target HLA-DR DRB3*02:02 (Homo sapiens, UniProt P01903+P79483, A212P/D57E/F66Y/L67A/R103Q/R218S/R40L/S89Y/T80R/V86D/Y55F/Y59H). To be noted: purified HLA-DR molecule; high affinity binding = IC50 <1,000 nM. As to the method: as §1, §2

HLA-DR DRB1*11:01, sequence (P01903 26-254 limits assumed, other chains not shown): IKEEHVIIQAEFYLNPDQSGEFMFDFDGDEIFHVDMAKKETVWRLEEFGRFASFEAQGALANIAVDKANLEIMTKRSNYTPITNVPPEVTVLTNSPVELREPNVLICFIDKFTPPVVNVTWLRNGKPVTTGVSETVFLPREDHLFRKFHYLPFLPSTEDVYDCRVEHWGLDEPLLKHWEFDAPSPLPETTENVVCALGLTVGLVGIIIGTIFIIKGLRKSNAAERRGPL
HLA-DR DRB1*03:01, sequence (P01903 26-254, other chains not shown): as the sequence (P01903 26-254 limits assumed, other chains not shown) above
HLA-DR DRB3*02:02, sequence (P01903 26-254 limits assumed): as the sequence (P01903 26-254 limits assumed, other chains not shown) above
HLA-DR DRB3*02:02, sequence (P79483 30-266 R40L/Y55F/D57E/Y59H/F66Y/L67A/T80R/V86D/S89Y/R103Q/A212P/R218S limits assumed): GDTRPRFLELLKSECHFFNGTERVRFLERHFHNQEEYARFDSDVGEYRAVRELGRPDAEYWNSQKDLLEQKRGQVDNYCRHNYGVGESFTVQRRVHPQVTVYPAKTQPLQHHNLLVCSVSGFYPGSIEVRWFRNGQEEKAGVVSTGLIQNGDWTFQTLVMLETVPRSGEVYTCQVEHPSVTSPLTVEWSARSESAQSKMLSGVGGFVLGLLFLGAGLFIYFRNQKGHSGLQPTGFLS
HLA-DR DRB1*13:02, sequence (P01903 26-254 limits assumed, other chains not shown): as the sequence (P01903 26-254 limits assumed, other chains not shown) above

Turning to LGVVSTVLLGGVGLV [EXP1-P18], the IC50 (in general, the point on the concentration scale where inhibition reaches its midpoint) is 5.02 µM in test [1]; 2.05 µM in [2]; 8.56 µM in test [3]; 6.63 µM in test [4]; 2.47 µM in test [5]; 0.3 µM in test [6]. For the same compound, the IC50 turned out to be 3.23 µM in test [7]; 0.433 µM in test [8]; 1.81 µM in [9]; 13.5 µM in test [10]; 0.019 µM in [11]; 0.194 µM in [12]. Further, the IC50 in test [13] was found to be 0.806 µM; in test [14], 1.89 µM; in [15] it was 0.491 µM.
Take EPLIDVHDLISDMIK [EXP1-P10]: the IC50 in test [1] was 31 µM; in [2], 27.5 µM; in test [6] it was 29.2 µM; in test [16], 6.77 µM; in test [9], 2.84 µM; in [10], 7.96 µM. Moreover, the IC50 in test [11] was determined as 6.02 µM; in test [12], 0.162 µM; in test [13] it was 1.11 µM.
As to `CC(C)C[C@H](NC(=O)CNC(=O)[C@@H](NC(=O)CNC(=O)CNC(=O)[C@H](CC(C)C)NC(=O)[C@H](CC(C)C)NC(=O)[C@@H](NC(=O)[C@@H](N)[C@@H](C)O)C(C)C)C(C)C)C(=O)N[C@H](C(=O)N[C@@H](CC(C)C)C(=O)N[C@@H](Cc1ccc(O)cc1)C(=O)N[C@@H](CC(N)=O)C(=O)N[C@H](C(=O)N[C@@H](CCC(=O)O)C(=O)O)[C@@H](C)O)C(C)C` [EXP1-P19], the IC50 was determined as 4.95 µM in test [1]; 2.44 µM in [2]; 7.44 µM in test [3]; 1.18 µM in test [5]; 0.219 µM in [6]; 3.95 µM in [8]. Also, the concentration for half-maximal inhibition (IC50) stood at 0.0086 µM in test [11]; 8.28 µM in [12]; 20.1 µM in [13]; 34 µM in test [14]; 4.45 µM in test [15].
On to GSGVSSKKKNKKGSG [EXP1-P07], for which the IC50 in test [3] worked out at 1.98 µM; in [5], 4.56 µM.
Take `CC[C@H](C)[C@H](NC(=O)[C@@H](NC(=O)[C@H](Cc1ccccc1)NC(=O)[C@H](Cc1ccccc1)NC(=O)[C@H](CC(C)C)NC(=O)[C@H](C)NC(=O)[C@H](CC(C)C)NC(=O)[C@H](Cc1ccccc1)NC(=O)[C@H](Cc1ccccc1)NC(=O)[C@@H](NC(=O)[C@H](CO)NC(=O)[C@H](CC(C)C)NC(=O)[C@@H](NC(=O)[C@H](CCCCN)NC(=O)[C@@H](N)CCSC)[C@@H](C)CC)C(C)C)[C@@H](C)CC)C(=O)O` [EXP1-P01]: the IC50 in [1] turned out to be 3.52 µM; in test [2], 5.05 µM; in [3], 3.12 µM; in test [4], 39.6 µM; in [5] it was 10.9 µM; in test [6], 3.36 µM. The IC50 in test [8] turned out to be 9.19 µM; in [9], 5.45 µM; in test [11], 21.4 µM; in [12] it was 25.2 µM; in test [13] it was 9.13 µM; in [14] it was 4.94 µM. This compound also gave an IC50 in test [15] of 3.59 µM.
For the compound VEVNKRKSKYKLATS [EXP1-P14], the IC50 in test [1] was found to be 0.083 µM; in test [2] it was 0.058 µM; in [3] it was 5.74 µM; in test [5], 0.089 µM; in [6] it was 6.1 µM; in test [8], 8.3 µM. Besides, the 50% inhibitory concentration (IC50) stood at 13.9 µM in test [10]; 2.35 µM in [11]; 5.84 µM in [17]; 0.295 µM in [14]; 0.077 µM in [15].
Turning to NANPDADSESNGEPN [EXP1-P25], the 50% inhibitory concentration (IC50) in test [1] was determined as 18.2 µM; in [2], 16.7 µM; in [4] it was 23.2 µM; in test [5], 31.1 µM; in [6] it was 1.1 µM; in [9] it was 4.01 µM. Also, the IC50 in [11] was 19.6 µM; in test [12], 12 µM; in test [13], 12.5 µM; in test [14] it was 33.6 µM.
Consider SKKKNKKGSGEPLID [EXP1-P08], for which, in test [9], the IC50 amounted to 30 µM.
On to KEEELVEVNKRKSKY [EXP1-P13], for which the IC50 in [3] stood at 1.19 µM; in test [4] it was 0.142 µM; in test [5] it was 1.12 µM; in test [12] it was 17.9 µM.
For the compound KLATSVLAGLLGVVS [EXP1-P16], the IC50 is 0.539 µM in test [1]; 0.38 µM in [2]; 32.4 µM in [3]; 0.81 µM in test [4]; 0.244 µM in [5]; 2.27 µM in test [6]. Also, the half-maximal inhibitory concentration (IC50) in test [8] is 0.133 µM; in test [16], 10.8 µM; in [9] it was 1.15 µM; in [10] it was 6.1 µM; in [11] it was 0.011 µM; in [12] it was 0.567 µM. For the same compound, the IC50 was found to be 0.481 µM in test [17], 0.454 µM in test [13], 0.152 µM in test [14] and 1.36 µM in test [15].
Consider SVFFLALFFIIFNKE [EXP1-P02], for which the concentration for half-maximal inhibition (IC50) in test [1] was 4.25 µM; in test [2], 4.2 µM; in test [3], 6.46 µM; in test [5], 6.95 µM; in test [6], 1.55 µM; in [8] it was 7.99 µM. Also, the IC50 is 12.3 µM in test [16]; 2.97 µM in test [9]; 10.6 µM in [10]; 11.7 µM in [11]; 17.4 µM in [12]; 2.61 µM in [13]. Also, the IC50 stood at 3.99 µM in test [14] and 0.648 µM in [15].
